Assay results as given in patent US9212151B2, “Heterocyclic compounds useful for kinase inhibition” (Amitech Therapeutic Solutions, Inc., priority 2010, dated 2015).

Assay: MTT cell viability assay, compounds at 5, 1 and 0.2 μM, 48 hours
Assay type: cell-based
Settings: human, A549 tumor cells
Protocol: MTT assay is used to determine cell proliferation, percent of viable cells, and cytotoxicity. MTT (3-[4,5-dimethylthiazol-2-yl]2,5-diphenyltetrazolium bromide) is a yellow dye, which can be absorbed by the living cells and be reduced to purplish blue formazan crystals by succinate tetrazolium reductase in mitochondria. Formazan formation can therefore be used to assess and determine the survival rate of cells.
Tumor cells (A549) were plated at 2500 cells/well of a 96-well plate in complete growth medium (DMEM+10% FBS, antibiotic/antimycotic, fungizone, L-glutamine, sodium pyruvate, and non-essential amino acids). The cells were allowed to grow overnight. After cell proliferation, the cells were washed and re-suspended in fresh culture medium and placed in 96 well plates.
To each of the 96 well plates containing A549 and a control, 5, 1, and 0.2 μM of the exemplary compounds 1-200 were add. The 96 well plates were incubated for 48 hours. Cell viability was measured by adding MTT (Sigma) at 5 mg/ml for 4 h to the cells and then removing the medium and resuspending each well in 50 μl DMSO to solubilize the crystals. The 96-well plates were read on a plate-scanning spectrophotometer (BioTek) at an absorbance of […]. The survival rate of cells was calculated based on the measurement of absorption at the 570 nm wavelength by enzyme immunoassay analyzer.

Row | SMILES | viability at 48 h, 0.2 µM | viability at 48 h, 1 µM | viability at 48 h, 5 µM
1 | FC(F)(F)c1cccc(Nc2nnc(-c3cccc(Oc4ncnc5[nH]ccc45)c3)[nH]2)c1 [Compound 21] | > 70% | > 70% | > 70%
2 | COc1ccc2c(Oc3cccc(-c4nnc(Nc5cccc(C(F)(F)F)c5)[nH]4)c3)ccnc2c1 [Compound 22] | > 70% | > 70% | > 70%
3 | FC(F)(F)c1cccc(Nc2nnc(-c3cccc(Oc4ccnc5ccccc45)c3)[nH]2)c1 [Compound 23] | > 70% | > 70% | > 70%
4 | Nc1cc(Oc2ccc(-c3nnc(Nc4cccc(C(F)(F)F)c4)o3)cc2)nc(N)n1 [Compound 24] | > 70% | > 70% | > 70%
5 | CSc1nc(N)cc(Oc2ccc(-c3nnc(Nc4cccc(C(F)(F)F)c4)o3)cc2)n1 [Compound 25] | < 50% | < 50% | < 50%
6 | FC(F)(F)c1cccc(Nc2nnc(-c3ccc(Oc4nccc(Cl)n4)cc3)o2)c1 [Compound 26] | > 70% | > 70% | > 70%
7 | Nc1nccc(Oc2ccc(-c3nnc(Nc4cccc(C(F)(F)F)c4)o3)cc2)n1 [Compound 27] | > 70% | > 70% | 50 to 70%
8 | Nc1cc(Oc2ccc(-c3nnc(Nc4cccc(C(F)(F)F)c4)o3)cc2)ncn1 [Compound 28] | > 70% | > 70% | > 70%
9 | FC(F)(F)c1cccc(Nc2nnc(-c3ccc(Oc4ccncc4)cc3)o2)c1 [Compound 29] | > 70% | > 70% | 50 to 70%
10 | FC(F)(F)c1cccc(Nc2nnc(-c3ccc(Oc4ccnc(Cl)c4)cc3)o2)c1 [Compound 30] | > 70% | > 70% | 50 to 70%
11 | NS(=O)(=O)c1cnccc1Oc1ccc(-c2nnc(Nc3cccc(C(F)(F)F)c3)o2)cc1 [Compound 31] | > 70% | > 70% | > 70%
12 | FC(F)(F)c1cccc(Nc2nnc(-c3ccc(Oc4ncnc5[nH]ccc45)cc3)o2)c1 [Compound 32] | > 70% | > 70% | > 70%
13 | COc1ccc2c(Oc3ccc(-c4nnc(Nc5cccc(C(F)(F)F)c5)o4)cc3)ccnc2c1 [Compound 33] | > 70% | > 70% | > 70%
14 | FC(F)(F)c1cccc(Nc2nnc(-c3ccc(Oc4ccnc5ccccc45)cc3)o2)c1 [Compound 34] | > 70% | > 70% | > 70%
15 | Nc1cc(Oc2cccc(-c3nnc(Nc4cccc(C(F)(F)F)c4)o3)c2)nc(N)n1 [Compound 35] | > 70% | > 70% | > 70%
16 | CSc1nc(N)cc(Oc2cccc(-c3nnc(Nc4cccc(C(F)(F)F)c4)o3)c2)n1 [Compound 36] | > 70% | > 70% | > 70%
17 | FC(F)(F)c1cccc(Nc2nnc(-c3cccc(Oc4ccncc4)c3)o2)c1 [Compound 37] | > 70% | > 70% | > 70%
18 | Nc1cc(Oc2cccc(-c3nnc(Nc4cccc(C(F)(F)F)c4)o3)c2)ccn1 [Compound 38] | > 70% | > 70% | > 70%
19 | NS(=O)(=O)c1cnccc1Oc1cccc(-c2nnc(Nc3cccc(C(F)(F)F)c3)o2)c1 [Compound 39] | > 70% | > 70% | > 70%
20 | FC(F)(F)c1cccc(Nc2nnc(-c3cccc(Oc4ccncc4C(F)(F)F)c3)o2)c1 [Compound 40] | > 70% | > 70% | > 70%
21 | COc1ccc2c(Oc3cccc(-c4nnc(Nc5cccc(C(F)(F)F)c5)o4)c3)ccnc2c1 [Compound 41] | > 70% | > 70% | > 70%
22 | FC(F)(F)c1cccc(Nc2nnc(-c3cccc(Oc4ccnc5ccccc45)c3)o2)c1 [Compound 42] | > 70% | > 70% | > 70%
23 | Nc1cc(Oc2ccc(-c3nnc(Nc4cccc(C(F)(F)F)c4)s3)cc2)nc(N)n1 [Compound 43] | > 70% | > 70% | > 70%

Row | SMILES | viability at 48 h, 0.2 µM | viability at 48 h, 1 µM | viability at 48 h, 5 µM
24 | CSc1nc(N)cc(Oc2ccc(-c3nnc(Nc4cccc(C(F)(F)F)c4)s3)cc2)n1 [Compound 44] | > 70% | > 70% | > 70%
25 | FC(F)(F)c1cccc(Nc2nnc(-c3ccc(Oc4ncnc5[nH]ccc45)cc3)s2)c1 [Compound 45] | > 70% | 50 to 70% | < 50%
26 | COc1ccc2c(Oc3ccc(-c4nnc(Nc5cccc(C(F)(F)F)c5)s4)cc3)ccnc2c1 [Compound 46] | > 70% | > 70% | < 50%
27 | FC(F)(F)c1cccc(Nc2nnc(-c3ccc(Oc4ccnc5ccccc45)cc3)s2)c1 [Compound 47] | > 70% | > 70% | > 70%
28 | CSc1nc(N)cc(Oc2cccc(-c3nnc(Nc4cccc(C(F)(F)F)c4)s3)c2)n1 [Compound 48] | > 70% | > 70% | > 70%
29 | COc1ccc2c(Oc3cccc(-c4nnc(Nc5cccc(C(F)(F)F)c5)s4)c3)ccnc2c1 [Compound 49] | > 70% | > 70% | 50 to 70%
30 | Cc1nccc(Oc2ccc(-c3nnc(Nc4cccc(C(F)(F)F)c4)[nH]3)cc2)n1 [Compound 51] | > 70% | 50 to 70% | < 50%
31 | CCOc1cc(Oc2ccc(-c3nnc(Nc4cccc(C(F)(F)F)c4)[nH]3)cc2)nc(N)n1 [Compound 52] | > 70% | > 70% | > 70%
32 | COCCOc1cc(Oc2ccc(-c3nnc(Nc4cccc(C(F)(F)F)c4)[nH]3)cc2)nc(N)n1 [Compound 53] | > 70% | > 70% | < 50%
33 | Cc1cc(Oc2cccc(-c3nnc(Nc4cccc(C(F)(F)F)c4)[nH]3)c2)nc(N)n1 [Compound 54] | > 70% | < 50% | < 50%
34 | Cc1nccc(Oc2cccc(-c3nnc(Nc4cccc(C(F)(F)F)c4)[nH]3)c2)n1 [Compound 55] | 50 to 70% | 50 to 70% | < 50%
35 | CSc1nc(Oc2cccc(-c3nnc(Nc4cccc(C(F)(F)F)c4)[nH]3)c2)c2cc[nH]c2n1 [Compound 56] | > 70% | > 70% | > 70%
36 | CCOc1cc(Oc2cccc(-c3nnc(Nc4cccc(C(F)(F)F)c4)[nH]3)c2)nc(N)n1 [Compound 57] | > 70% | > 70% | > 70%
37 | COCCOc1cc(Oc2cccc(-c3nnc(Nc4cccc(C(F)(F)F)c4)[nH]3)c2)nc(N)n1 [Compound 58] | > 70% | > 70% | > 70%
38 | Nc1cc(Oc2ccc(-c3nnc(Nc4cccc(C(F)(F)F)c4)o3)cc2)ccn1 [Compound 59] | > 70% | > 70% | > 70%
39 | FC(F)(F)c1cccc(Nc2nnc(-c3cccc(Oc4ncnc5[nH]ccc45)c3)o2)c1 [Compound 60] | > 70% | > 70% | > 70%
40 | Nc1cc(Oc2ccc(-c3nnc(Nc4cccc(C(F)(F)F)c4)[nH]3)cc2)nc(NCCO)n1 [Compound 61] | > 70% | > 70% | > 70%
41 | NCCSc1nc(N)cc(Oc2ccc(-c3nnc(Nc4cccc(C(F)(F)F)c4)[nH]3)cc2)n1 [Compound 62] | > 70% | > 70% | > 70%
42 | C[S+]([O-])c1nc(N)cc(Oc2ccc(-c3nnc(Nc4cccc(C(F)(F)F)c4)[nH]3)cc2)n1 (stereo not drawn) [Compound 63] | > 70% | > 70% | 50 to 70%
43 | CS(=O)(=O)c1nc(N)cc(Oc2ccc(-c3nnc(Nc4cccc(C(F)(F)F)c4)[nH]3)cc2)n1 [Compound 64] | > 70% | > 70% | > 70%
44 | CSc1nc(N)cc(Oc2ccc(-c3nnc(Nc4cccc(C)c4)[nH]3)cc2)n1 [Compound 65] | > 70% | > 70% | 50 to 70%
45 | CSc1nc(N)cc(Oc2ccc(-c3nnc(Nc4ccc(Cl)c(C(F)(F)F)c4)[nH]3)cc2)n1 [Compound 66] | > 70% | > 70% | < 50%
46 | CSc1nc(N)cc(Oc2ccc(-c3nnc(Nc4cc(C)ccc4C)[nH]3)cc2)n1 [Compound 67] | 50 to 70% | < 50% | < 50%
